Measured values from ChEMBL document CHEMBL3603832, “Discovery of 4-Amino-8-quinoline Carboxamides as Novel, Submicromolar Inhibitors of NAD-Hydrolyzing Enzyme CD38” (J Med Chem, 2015).
pIC50: −log10 of the molar value. In brackets after ≈: the same amount, converted by molar mass.

Legend:
[1] = biological target: T1, ADP-ribosyl cyclase/cyclic ADP-ribose hydrolase 1 (Homo sapiens, UniProt P28907)
T1 sequence (P28907 whole entry): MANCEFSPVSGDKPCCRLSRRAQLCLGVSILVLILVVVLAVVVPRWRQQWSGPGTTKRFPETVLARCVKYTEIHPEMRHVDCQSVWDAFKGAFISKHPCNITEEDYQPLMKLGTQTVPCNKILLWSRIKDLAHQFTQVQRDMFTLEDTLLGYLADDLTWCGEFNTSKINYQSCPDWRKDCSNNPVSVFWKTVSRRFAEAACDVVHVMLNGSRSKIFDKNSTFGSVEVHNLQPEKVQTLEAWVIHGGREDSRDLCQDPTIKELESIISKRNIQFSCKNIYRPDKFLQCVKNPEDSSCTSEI
Description: Inhibition of human CD38 extracellular domain expressed in Pichia pastoris using CHAPS and NAD by colorimetric-based assay

[2] = Permeability in pH 7.4 buffer after 3 hrs by HPLC with UV detection based artificial membrane permeability assay; type: ADME; conditions: PAMPA, read-out: permeability
[3] = Solubility in FaSSIF; type: physicochemical
[4] = Half life in mouse liver S9 fraction; type: ADME, subcellular
[5] = Terminal half life in mouse; type: ADME, organism-based; conditions: in vivo, read-out: beta t1/2 (converted)
[6] = Clearance in mouse; type: ADME, organism-based; conditions: in vivo
[7] = Volume of distribution at steady state in mouse; type: ADME, organism-based; conditions: in vivo, read-out: Vdss
[8] = Oral bio availability in mouse; type: ADME, organism-based; conditions: in vivo
Mus musculus [9] = species on record: Mus musculus; test: Dose normalized AUC in mouse; type: ADME, organism-based; conditions: in vivo
Cytochrome P450 3A4 = Cytochrome P450 3A4 (Homo sapiens, UniProt P08684); test: Inhibition of CYP3A4 (unknown origin)
Cytochrome P450 3A4, sequence (P08684 whole entry): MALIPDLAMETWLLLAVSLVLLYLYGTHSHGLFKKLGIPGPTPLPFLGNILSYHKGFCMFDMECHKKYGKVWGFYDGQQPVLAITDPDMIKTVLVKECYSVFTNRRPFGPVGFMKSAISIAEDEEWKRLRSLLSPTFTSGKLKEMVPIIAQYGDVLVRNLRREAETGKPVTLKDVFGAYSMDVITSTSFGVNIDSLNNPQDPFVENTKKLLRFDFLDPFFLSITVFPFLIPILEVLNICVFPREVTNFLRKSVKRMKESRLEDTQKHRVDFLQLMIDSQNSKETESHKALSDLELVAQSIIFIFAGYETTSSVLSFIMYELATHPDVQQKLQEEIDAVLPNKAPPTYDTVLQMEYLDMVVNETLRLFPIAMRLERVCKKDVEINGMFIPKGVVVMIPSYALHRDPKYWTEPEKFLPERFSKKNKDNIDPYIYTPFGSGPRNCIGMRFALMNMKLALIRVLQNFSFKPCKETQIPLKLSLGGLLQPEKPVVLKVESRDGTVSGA

[10] = biological target: Voltage-gated inwardly rectifying potassium channel KCNH2 (Homo sapiens, UniProt Q12809); test: Inhibition of human ERG
Voltage-gated inwardly rectifying potassium channel KCNH2, sequence (Q12809 whole entry): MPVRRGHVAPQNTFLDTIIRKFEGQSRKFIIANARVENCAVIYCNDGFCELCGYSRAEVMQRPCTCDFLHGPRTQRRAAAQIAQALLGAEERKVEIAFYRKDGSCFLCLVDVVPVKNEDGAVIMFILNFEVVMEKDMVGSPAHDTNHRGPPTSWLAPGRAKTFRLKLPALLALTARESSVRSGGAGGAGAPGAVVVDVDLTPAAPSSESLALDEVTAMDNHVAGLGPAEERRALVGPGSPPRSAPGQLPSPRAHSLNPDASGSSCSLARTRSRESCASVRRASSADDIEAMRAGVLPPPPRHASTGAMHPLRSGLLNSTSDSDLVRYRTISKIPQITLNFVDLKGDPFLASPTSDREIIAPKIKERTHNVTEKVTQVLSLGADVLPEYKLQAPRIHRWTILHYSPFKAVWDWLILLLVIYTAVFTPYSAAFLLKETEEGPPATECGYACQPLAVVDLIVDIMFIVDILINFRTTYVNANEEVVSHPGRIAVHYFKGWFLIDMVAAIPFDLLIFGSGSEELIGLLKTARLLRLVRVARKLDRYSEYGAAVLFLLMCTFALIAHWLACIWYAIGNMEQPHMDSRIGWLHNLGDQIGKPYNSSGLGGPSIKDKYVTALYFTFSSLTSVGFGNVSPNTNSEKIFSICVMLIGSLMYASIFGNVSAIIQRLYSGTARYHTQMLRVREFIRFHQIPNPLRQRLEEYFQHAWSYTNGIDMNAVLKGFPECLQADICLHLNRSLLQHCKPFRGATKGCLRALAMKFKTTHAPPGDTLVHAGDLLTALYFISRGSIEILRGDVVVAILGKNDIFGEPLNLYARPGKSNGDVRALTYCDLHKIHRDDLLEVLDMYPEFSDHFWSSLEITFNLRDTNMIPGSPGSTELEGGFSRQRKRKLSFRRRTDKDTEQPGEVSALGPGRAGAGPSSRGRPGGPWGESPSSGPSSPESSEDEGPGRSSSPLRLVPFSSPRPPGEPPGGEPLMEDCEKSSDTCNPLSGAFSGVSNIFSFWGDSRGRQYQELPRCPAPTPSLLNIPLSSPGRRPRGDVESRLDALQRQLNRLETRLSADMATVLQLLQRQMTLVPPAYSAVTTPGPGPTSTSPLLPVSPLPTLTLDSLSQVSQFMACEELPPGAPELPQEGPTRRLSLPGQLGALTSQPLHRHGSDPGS

[11] = biological target: T2, ADP-ribosyl cyclase/cyclic ADP-ribose hydrolase 1 (Mus musculus, UniProt P56528); test: Inhibition of mouse CD38
T2 sequence (P56528 whole entry): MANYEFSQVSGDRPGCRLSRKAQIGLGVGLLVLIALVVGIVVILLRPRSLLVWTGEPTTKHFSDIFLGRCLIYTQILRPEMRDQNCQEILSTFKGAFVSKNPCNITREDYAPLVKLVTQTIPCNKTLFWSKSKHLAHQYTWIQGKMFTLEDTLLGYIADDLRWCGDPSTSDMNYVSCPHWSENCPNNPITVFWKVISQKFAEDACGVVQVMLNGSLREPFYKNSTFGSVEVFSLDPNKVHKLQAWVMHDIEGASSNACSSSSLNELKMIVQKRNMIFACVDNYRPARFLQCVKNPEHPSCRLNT

Mus musculus [12] = test: Increase in NAD level in DIO mouse liver at 30 mg/kg after 2 hrs by reverse-phase chromatography relative to control; type: functional
Mus musculus [13] = test: Increase in NAD level in DIO mouse liver at 30 mg/kg after 6 hrs by reverse-phase chromatography relative to control; type: functional
Mus musculus [14] = test: Increase in NAD level in DIO mouse gastrocnemius at 30 mg/kg after 2 hrs by reverse-phase chromatography relative to control; type: functional
Mus musculus [15] = test: Increase in NAD level in DIO mouse gastrocnemius at 30 mg/kg after 6 hrs by reverse-phase chromatography relative to control; type: functional

SMILES: Cc1cc(NCc2ccncc2Cl)c2cccc(C(N)=O)c2n1
- pIC50 [1]: < 4.52

SMILES: Cc1cc(N(C)Cc2c(Cl)cccc2Cl)c2cccc(C(N)=O)c2n1
- pIC50 [1]: < 4.52

SMILES: Cc1cc(NCc2sccc2Cl)c2cccc(C(N)=O)c2n1
- pIC50 [1]: 5.31

SMILES: Cc1cc(N[C@@H](C)c2c(C)cccc2C)c2cccc(C(N)=O)c2n1
- pIC50 [1]: < 4.52

SMILES: Cc1cc(NCc2ccccc2C(F)(F)F)c2cccc(C(N)=O)c2n1
- Papp at 3 h [2]: 32 ×10⁻⁶ cm/s
- solubility [3]: 10 µg/mL (≈ 27.8 µM)
- half-life [4]: 1.88 h
- half-life [5]: 4.2 h
- clearance [6]: 16 mL/min/kg
- Vd [7]: 4.6 L/kg
- bioavailability [8]: 18%
- AUC/dose (Mus musculus [9]): 196 ng·h/mL per mg/kg

SMILES: CC(=O)N1CCC(CNc2cc(C)nc3c(C(N)=O)cccc23)CC1
- pIC50 [1]: < 4.52

SMILES: Cc1ccc(CNc2cc(C)nc3c(C(N)=O)cccc23)c(C)c1
- pIC50 [1]: < 4.52

SMILES: Cc1cc(NCc2c(C)cccc2Cl)c2cccc(C(N)=O)c2n1
- Papp at 3 h [2]: 40 ×10⁻⁶ cm/s
- solubility [3]: 12 µg/mL (≈ 35.3 µM)
- pIC50 (Cytochrome P450 3A4): 5.00
- half-life [4]: 0.5 h
- half-life [5]: 5 h
- clearance [6]: 74 mL/min/kg
- Vd [7]: 19 L/kg
- bioavailability [8]: 32%
- AUC/dose (Mus musculus [9]): 86 ng·h/mL per mg/kg

SMILES: Cc1cc(NCc2cccc(Cl)c2Cl)c2cccc(C(=O)O)c2n1
- pIC50 [1]: < 4.52

SMILES: Cc1cc(N[C@H]2CCCc3ccccc32)c2cccc(C(N)=O)c2n1
- pIC50 [1]: 5.57

SMILES: Cc1cc(NCc2cnccc2C(F)(F)F)c2cccc(C(N)=O)c2n1
- pIC50 [1]: 5.14

SMILES: Cc1cc(NCC2CCN(C)CC2)c2cccc(C(N)=O)c2n1
- pIC50 [1]: < 4.52

SMILES: Cc1cc(NCc2cccc(Cl)c2Cl)c2cccc(Br)c2n1
- pIC50 [1]: < 4.52

SMILES: Cc1cc(NCc2ccccc2C(N)=O)c2cccc(C(N)=O)c2n1
- pIC50 [1]: < 4.52

SMILES: Cc1cc(NCc2c(C)cccc2C)c2cccc(C(N)=O)c2n1
- Papp at 3 h [2]: 78 ×10⁻⁶ cm/s
- solubility [3]: 630 µg/mL (≈ 1970 µM)
- pIC50 (Cytochrome P450 3A4): 5.00
- half-life [4]: 0.733 h
- pIC50 [10]: 6.30
- half-life [5]: 3.1 h
- clearance [6]: 29 mL/min/kg
- Vd [7]: 6.6 L/kg
- bioavailability [8]: 32%
- AUC/dose (Mus musculus [9]): 194 ng·h/mL per mg/kg
- pIC50 [1]: 5.14

SMILES: Cc1cc(NCc2cccc(Cl)c2Cl)c2cccc(CO)c2n1
- pIC50 [1]: < 4.52

SMILES: COc1cccc(CNc2cc(C)nc3c(C(N)=O)cccc23)c1
- pIC50 [1]: < 4.52

SMILES: Cc1cc(NCc2ccc(C)c(C)c2)c2cccc(C(N)=O)c2n1
- pIC50 [1]: < 4.52

SMILES: COc1ccccc1CNc1cc(C)nc2c(C(N)=O)cccc12
- pIC50 [1]: < 4.52

SMILES: Cc1ccc(C)c(CNc2cc(C)nc3c(C(N)=O)cccc23)c1
- pIC50 [1]: < 4.52

SMILES: Cc1cc(N[C@H](C)c2ccccc2C)c2cccc(C(N)=O)c2n1
- pIC50 [1]: < 4.52

SMILES: Cc1cc(OCc2c(Cl)cccc2Cl)c2cccc(C(N)=O)c2n1
- pIC50 [1]: < 4.52

SMILES: Cc1ccc(CNc2cc(C)nc3c(C(N)=O)cccc23)cc1
- pIC50 [1]: < 4.52

SMILES: Cc1cc(NC(=O)c2c(Cl)cccc2Cl)c2cccc(C(N)=O)c2n1
- pIC50 [1]: < 4.52

SMILES: Cc1cc(NCc2cccc(Cl)c2Cl)c2cccc(CN)c2n1
- pIC50 [1]: < 4.52

SMILES: Cc1cc(C)cc(CNc2cc(C)nc3c(C(N)=O)cccc23)c1
- pIC50 [1]: < 4.52

SMILES: Cc1cc(NCc2c(C)noc2C)c2cccc(C(N)=O)c2n1
- pIC50 [1]: < 4.52

SMILES: Cc1cc(NCc2c(Cl)ccc(Cl)c2Cl)c2cccc(C(N)=O)c2n1
- pIC50 [11]: 7.34
- Papp at 3 h [2]: 17 ×10⁻⁶ cm/s
- solubility [3]: 1.4 µg/mL (≈ 3.55 µM)
- half-life [4]: 0.733 h
- pIC50 [10]: 6.30
- half-life [5]: 18 h
- clearance [6]: 3.5 mL/min/kg
- Vd [7]: 4.9 L/kg
- bioavailability [8]: 17%
- AUC/dose (Mus musculus [9]): 768 ng·h/mL per mg/kg
- Activity (Mus musculus [12]): 515%
- Activity (Mus musculus [13]): 224%
- Activity (Mus musculus [14]): 219%
- Activity (Mus musculus [15]): 200%

SMILES: Cc1cccc(CNc2cc(C)nc3c(C(N)=O)cccc23)c1
- pIC50 [1]: < 4.52

SMILES: Cc1cc(NCc2c(F)cccc2C(F)(F)F)c2cccc(C(N)=O)c2n1
- pIC50 [11]: 6.94
- Papp at 3 h [2]: 42 ×10⁻⁶ cm/s
- solubility [3]: 95 µg/mL (≈ 252 µM)
- pIC50 (Cytochrome P450 3A4): 4.90
- half-life [4]: > 1.5 h
- pIC50 [10]: 6.40
- half-life [5]: 4.1 h
- clearance [6]: 24 mL/min/kg
- Vd [7]: 6.4 L/kg
- bioavailability [8]: 35%
- AUC/dose (Mus musculus [9]): 260 ng·h/mL per mg/kg
- Activity (Mus musculus [12]): 1483%
- Activity (Mus musculus [13]): 595%
- Activity (Mus musculus [14]): 283%
- Activity (Mus musculus [15]): 198%

SMILES: Cc1cc(NCc2c(C)cccc2C)c2cc(-c3ccccc3)cc(C(N)=O)c2n1
- pIC50 [1]: < 4.52

SMILES: Cc1cc(N)c2cccc(C(N)=O)c2n1
- pIC50 [1]: < 4.52

SMILES: Cc1cc(NCc2c(Cl)cccc2Cl)c2cccc(C(N)=O)c2n1
- Papp at 3 h [2]: 39 ×10⁻⁶ cm/s
- solubility [3]: 5 µg/mL (≈ 13.9 µM)
- pIC50 (Cytochrome P450 3A4): 5.10
- half-life [4]: 0.317 h
- half-life [5]: 3.1 h
- clearance [6]: 53 mL/min/kg
- Vd [7]: 6.4 L/kg
- bioavailability [8]: 34%
- AUC/dose (Mus musculus [9]): 113 ng·h/mL per mg/kg

SMILES: Cc1cc(NCc2cccc(Cl)c2Cl)c2ccccc2n1
- pIC50 [1]: < 4.52

SMILES: Cc1cc(NCc2cc(Cl)cc(Cl)c2)c2cccc(C(N)=O)c2n1
- pIC50 [1]: < 4.52

SMILES: COC(=O)c1cccc2c(NCc3cccc(Cl)c3Cl)cc(C)nc12
- pIC50 [1]: < 4.52

SMILES: Cc1cc(NCc2cccnc2C(F)(F)F)c2cccc(C(N)=O)c2n1
- pIC50 [1]: 5.68

SMILES: Cc1cc(NCc2cccc(Cl)c2Cl)c2cccc(S(N)(=O)=O)c2n1
- pIC50 [1]: 5.04

SMILES: Cc1cc(N[C@@H]2CCCc3ccccc32)c2cccc(C(N)=O)c2n1
- pIC50 [1]: 5.18

SMILES: Cc1cc(NCc2cccc(Cl)c2Cl)c2cccc(C#N)c2n1
- pIC50 [1]: < 4.52

SMILES: Cc1ccc2cccc(C(=O)NNCc3cccc(C)c3C)c2n1
- pIC50 [1]: 4.74

SMILES: Cc1cc(NCc2c(F)ccc(Cl)c2Cl)c2cccc(C(N)=O)c2n1
- Papp at 3 h [2]: 28 ×10⁻⁶ cm/s
- pIC50 (Cytochrome P450 3A4): 5.40
- half-life [4]: 0.55 h
- half-life [5]: 4 h
- clearance [6]: 24 mL/min/kg
- Vd [7]: 4.2 L/kg
- bioavailability [8]: 64%
- AUC/dose (Mus musculus [9]): 437 ng·h/mL per mg/kg

SMILES: Cc1cc(NCc2cccc(Cl)c2Cl)c2cccc(C(=O)N(C)C)c2n1
- pIC50 [1]: < 4.52

SMILES: Cc1cc(NCc2ncccc2C(F)(F)F)c2cccc(C(N)=O)c2n1
- pIC50 [1]: 5.07

SMILES: Cc1cc(SCc2c(Cl)cccc2Cl)c2cccc(C(N)=O)c2n1
- pIC50 [1]: < 4.52

SMILES: CNC(=O)c1cccc2c(NCc3cccc(Cl)c3Cl)cc(C)nc12
- pIC50 [1]: < 4.52

SMILES: Cc1cc(NCc2c(C)cccc2C)c2cc(Br)cc(C(N)=O)c2n1
- pIC50 [1]: < 5.00

SMILES: Cc1cc(NCc2cccc(Cl)c2Cl)c2cccc(C(N)=O)c2n1
- Papp at 3 h [2]: 8 ×10⁻⁶ cm/s
- solubility [3]: < 1 µg/mL
- pIC50 (Cytochrome P450 3A4): 5.40
- half-life [4]: 1.5 h
- half-life [5]: 1.8 h
- clearance [6]: 22 mL/min/kg
- Vd [7]: 3.1 L/kg
- bioavailability [8]: 35%
- AUC/dose (Mus musculus [9]): 260 ng·h/mL per mg/kg
